Measurements reported in PubChem BioAssay AID2060492 (Molecular Pharmacology Branch, DTP, NCI, 2025).

System: 695427-040-R-J1-PDC complex spheroids, viability percent T/C
Assay: Anticancer human tumor 695427-040-R-J1-PDC patient-derived colon adenocarcinoma cell line growth inhibition [GQUAD]
Conditions: for IC50: curve of first compound; for viability, T/C: stronger effect = lower value
Description: DNA G-quadruplex Stabilizer Agents in Combinations in Complex Spheroids
A high-throughput screen of multi-cell type tumor spheroids was designed to identify active combinations of DNA G-quadruplex stabilizer agents and targeted small molecules. Complex spheroids include a stromal component modeled by human endothelial cells (HUVEC) and fibroblasts modeled by human mesenchymal stem cells (MSCs). The concentration ranges selected for each drug and investigational agent were based upon clinically achievable concentrations if the clinical Cmax of the agent was known.
Compounds. The drugs and investigational agents: pidnarulex (CX-5461; NSC782164), APTO-253 (NSC789042), BRACO-19 (NSC847499), peposertib (NSC802822), ceralasertib (NSC780249), elimusertib (NSC800525), camonsertib (NSC841442), AZD-1390 (NSC803789), olaparib (NSC753686), talazoparib (NSC767125), ART-558 (NSC835418), sotorasib (NSC818433), MRTX-1133 (NSC836407), SN-38 (NSC673596), topotecan (NSC609699), etoposide (NSC141540), doxorubicin (NSC123127), gemcitabine (NSC613327), 5-fluorouracil (NSC19893), paclitaxel (NSC125973), vemurafenib (NSC761431), panobinostat (NSC761190), R-306465 (JNJ-16241199; NSC773264), adavosertib (NSC754352), TP-3654 (NSC805149), carboplatin (NSC241240), KSQ-4279 (NSC840948), and staurosporine (NSC755774) were obtained from the National Cancer Institute (NCI) Developmental Therapeutics Program Chemical Repository (34). The FDA-approved anticancer drug set is available from the NCI Developmental Therapeutics Program. […] The stock solutions were prepared in dimethyl sulfoxide (DMSO, Sigma-Aldrich, St. Louis, MO, cat. D2650) at 800-fold the tested concentration and stored at -70 degrees C prior to their use. All drugs and investigational agents were tested over a range starting from a high concentration at or near the clinical Cmax and decreasing in half-log increments. If the clinical Cmax for an agent had not been determined, the highest concentration tested was 10 microM.
2.3 Cell Culture. All cells were maintained in an incubator at 37 degrees C and 5% CO2 with 95% humidity. The PDC lines were cultured according to standard operating procedures established by the NCI PDMR. All PDCs were thawed and cultured in Matrigel-coated flasks prepared with a working solution of 1X Ham's F-12 nutrient mix, without supplementation (Invitrogen, cat. 11765054), 100 U/mL penicillin-streptomycin (Invitrogen, cat. 15140122), and 2.5% Matrigel (Corning Inc., cat. 354248) for the first three passages. The 857933-349-R-J2-PDC line was cultured in 6C/Colon 1B media, which includes advanced DMEM/F-12 (Thermo Fisher Scientific, cat. 12634028), 10 mM HEPES (Thermo Fisher Scientific, cat. 15630080), 1X GlutaMAX supplement (Thermo Fisher Scientific, cat. 35050061), 0.1 mg/mL primocin (InvivoGen, cat. ant-pm-2), 10% defined fetal bovine serum, heat inactivated (HyClone Laboratories Inc., cat. SH30070.03HI), 50% L-WRN conditioned media (ATCC, cat. CRL-3276), 1.25 mM N-Acetyl-L-cysteine (Sigma-Aldrich, cat. A9165), 10 mM nicotinamide (Sigma-Aldrich, cat. N0636), 1X B-27 supplement (Thermo Fisher Scientific, cat. 17504044), 1X N-2 supplement (Thermo Fisher Scientific, cat. 17502048), 10 microM Y-27632 dihydrochloride (Tocris Bioscience, cat. 1254), and 50 ng/mL human EGF recombinant protein (Thermo Fisher Scientific, cat. PHG0311). The 485176-168-R4-J1-PDC line was cultured in Panc media, which includes all 6C/Colon 1B media components plus 100 ng/mL human FGF-10 (Thermo Fisher Scientific, cat. 100-26), 500 nM SB-431542 (Selleckchem, cat. S1067), and gastrin (Tocris, cat. 3006).
[…]

[1] = second compound 0.0316 µM, first compound 0.0316 µM
[2] = second compound 0.0316 µM, first compound 0.1 µM
[3] = second compound 0.0316 µM, first compound 0.316 µM
[4] = second compound 0.0316 µM, first compound 1 µM
[5] = second compound 0.0316 µM, first compound 3.16 µM
[6] = second compound 0.0316 µM, first compound 10 µM
[7] = second compound 0.1 µM, first compound 0.0316 µM
[8] = second compound 0.1 µM, first compound 0.1 µM
[9] = second compound 0.1 µM, first compound 0.316 µM
[10] = second compound 0.1 µM, first compound 1 µM
[11] = second compound 0.1 µM, first compound 3.16 µM
[12] = second compound 0.1 µM, first compound 10 µM
[13] = second compound 0.316 µM, first compound 0.0316 µM
[14] = second compound 0.316 µM, first compound 0.1 µM
[15] = second compound 0.316 µM, first compound 0.316 µM
[16] = second compound 0.316 µM, first compound 1 µM
[17] = second compound 0.316 µM, first compound 3.16 µM
[18] = second compound 0.316 µM, first compound 10 µM
[19] = second compound 1 µM, first compound 0.0316 µM
[20] = second compound 1 µM, first compound 0.1 µM
[21] = second compound 1 µM, first compound 0.316 µM
[22] = second compound 1 µM, first compound 1 µM
[23] = second compound 1 µM, first compound 3.16 µM
[24] = second compound 1 µM, first compound 10 µM
[25] = second compound 3.16 µM, first compound 0.0316 µM
[26] = second compound 3.16 µM, first compound 0.1 µM
[27] = second compound 3.16 µM, first compound 0.316 µM
[28] = second compound 3.16 µM, first compound 1 µM
[29] = second compound 3.16 µM, first compound 3.16 µM
[30] = second compound 3.16 µM, first compound 10 µM
[31] = second compound 10 µM, first compound 0.0316 µM
[32] = second compound 10 µM, first compound 0.1 µM
[33] = second compound 10 µM, first compound 0.316 µM
[34] = second compound 10 µM, first compound 1 µM
[35] = second compound 10 µM, first compound 3.16 µM
[36] = second compound 10 µM, first compound 10 µM
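Also: spheroids exposed to compounds for seven days before readout.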

For `CC(=O)O[C@H]1C(=O)[C@@]2(C)[C@H]([C@H](OC(=O)c3ccccc3)[C@]3(O)C[C@H](OC(=O)[C@H](O)[C@@H](NC(=O)c4ccccc4)c4ccccc4)C(C)=C1C3(C)C)[C@]1(OC(C)=O)CO[C@@H]1C[C@@H]2O` + CN(C)c1ccc(Nc2c3ccc(NC(=O)CCN4CCCC4)cc3nc3cc(NC(=O)CCN4CCCC4)ccc23)cc1, the IC50 (second compound 0.0316 µM) was > 10 µM, the IC50 (second compound 0.1 µM) was > 10 µM and the IC50 (second compound 0.316 µM) was > 10 µM. The IC50 (second compound 1 µM) was > 10 µM, the IC50 (second compound 3.16 µM) was > 10 µM and the IC50 (second compound 10 µM) was > 10 µM. It also gave a viability, T/C [1] of 98.5%, a viability, T/C [2] of 90.7% and a viability, T/C [3] of 90.4%. It also gave a viability, T/C [4] of 85.6%, a viability, T/C [5] of 84% and a viability, T/C [6] of 73.2%. For the same compound, the viability, T/C [7] was 98.5%, the viability, T/C [8] was 87.8% and the viability, T/C [9] was 89.3%. The viability, T/C [10] was 79.8%, the viability, T/C [11] was 79.5% and the viability, T/C [12] was 68.7%. It also gave a viability, T/C [13] of 106%, a viability, T/C [14] of 96% and a viability, T/C [15] of 85.5%. The viability, T/C [16] was 84.5%, the viability, T/C [17] was 82.6% and the viability, T/C [18] was 70.1%. It also gave a viability, T/C [19] of 89.7%, a viability, T/C [20] of 88.4% and a viability, T/C [21] of 89.8%. For the same compound, the viability, T/C [22] was 85.5%, the viability, T/C [23] was 76.3% and the viability, T/C [24] was 69.8%. The viability, T/C [25] was 92.8%, the viability, T/C [26] was 96.7% and the viability, T/C [27] was 88.7%. For the same compound, the viability, T/C [28] was 84.3%, the viability, T/C [29] was 77.4% and the viability, T/C [30] was 66.3%. The viability, T/C [31] was 86.9%, the viability, T/C [32] was 84.8% and the viability, T/C [33] was 84.5%. It also gave a viability, T/C [34] of 75.8%, a viability, T/C [35] of 71.2% and a viability, T/C [36] of 61.9%.
For `CC(C)n1c(=O)n(C)c2cnc3cc(F)c(-c4ccc(OCCCN5CCCCC5)nc4)cc3c21` + CN(C)c1ccc(Nc2c3ccc(NC(=O)CCN4CCCC4)cc3nc3cc(NC(=O)CCN4CCCC4)ccc23)cc1, the IC50 (second compound 0.0316 µM) was > 10 µM, the IC50 (second compound 0.1 µM) was > 10 µM and the IC50 (second compound 0.316 µM) was > 10 µM. The IC50 (second compound 1 µM) was > 10 µM, the IC50 (second compound 3.16 µM) was > 10 µM and the IC50 (second compound 10 µM) was > 10 µM. It also gave a viability, T/C [1] of 113%, a viability, T/C [2] of 96.1% and a viability, T/C [3] of 111%. The viability, T/C [4] was 101%, the viability, T/C [5] was 104% and the viability, T/C [6] was 66%. It also gave a viability, T/C [7] of 107%, a viability, T/C [8] of 97.3% and a viability, T/C [9] of 106%. It also gave a viability, T/C [10] of 102%, a viability, T/C [11] of 110% and a viability, T/C [12] of 62.5%. For the same compound, the viability, T/C [13] was 108%, the viability, T/C [14] was 98.5% and the viability, T/C [15] was 102%. The viability, T/C [16] was 106%, the viability, T/C [17] was 100% and the viability, T/C [18] was 67.4%. For the same compound, the viability, T/C [19] was 101%, the viability, T/C [20] was 102% and the viability, T/C [21] was 110%. It also gave a viability, T/C [22] of 105%, a viability, T/C [23] of 100% and a viability, T/C [24] of 62.9%. For the same compound, the viability, T/C [25] was 86.4%, the viability, T/C [26] was 101% and the viability, T/C [27] was 94.4%. For the same compound, the viability, T/C [28] was 98.8%, the viability, T/C [29] was 95.5% and the viability, T/C [30] was 68.1%. For the same compound, the viability, T/C [31] was 89.4%, the viability, T/C [32] was 92.2% and the viability, T/C [33] was 93.3%. The viability, T/C [34] was 89.3%, the viability, T/C [35] was 93.7% and the viability, T/C [36] was 59.4%.
